The Kd is the free concentration of one partner at which half of the binding sites on the other are occupied at equilibrium, for simple one-to-one binding. Low readings indicate a tighter complex, high ones a looser complex.

The target of the experiment is BMSmAb (Bristol Myers Squibb mAb, a type of IgG4). The experiment is described as follows: STD NMR titration. Format: binding.

Each structure is given as a SMILES string.

In turn, `OC[C@H]1O[C@@](CO)(O[C@H]2O[C@H](CO)[C@@H](O)[C@H](O)[C@H]2O)[C@@H](O)[C@@H]1O` [sucrose] registered a Kd of 67.8 mM.

Values taken from PMC10208151 (mAbs, 2023).
